Data published in patent publication US10131652B2, “Pyrimidinyloxy benzene derivatives as herbicides” (E. I. DU PONT DE NEMOURS AND COMPANY, priority 2014, dated 2018).
Like-named read-outs stand apart in the source and are kept apart here.

What was measured:
Assay in all cases: Test D pre-/postemergence plant response
Assay type in all cases: in vivo
[1] = tested on: large (Lg) crabgrass (Digitaria sanguinalis); settings: Digitaria sanguinalis; for pest or weed control at 31 g/ha: 31 g ai/ha; for pest or weed control at 62 g/ha: 62 g ai/ha; for pest or weed control at 125 g/ha: 125 g ai/ha; for pest or weed control at 250 g/ha: 250 g ai/ha
How it was run: (§1)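 Test chemicals were formulated in a non-phytotoxic solvent mixture containing surfactant and applied either preemergence to seeds in loam–sand soil or postemergence to plants 2 to 18 cm tall (1- to 4-leaf stage). Response was rated visually against controls after 13 to 15 days, from 0 (none) to 100 (complete control).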

[2] = tested on: morningglory (Ipomoea coccinea); settings: Ipomoea; for pest or weed control at 31 g/ha: 31 g ai/ha; for pest or weed control at 62 g/ha: 62 g ai/ha; for pest or weed control at 125 g/ha: 125 g ai/ha; for pest or weed control at 250 g/ha: 250 g ai/ha
How it was run: as §1

[3] = tested on: pigweed (Amaranthus retroflexus); settings: Amaranthus retroflexus; for pest or weed control at 31 g/ha: 31 g ai/ha; for pest or weed control at 62 g/ha: 62 g ai/ha; for pest or weed control at 125 g/ha: 125 g ai/ha; for pest or weed control at 250 g/ha: 250 g ai/ha
How it was run: as §1

soybean (Glycine max) = settings: Glycine max; for plant injury at 31 g/ha: 31 g ai/ha; for plant injury at 62 g/ha: 62 g ai/ha; for plant injury at 125 g/ha: 125 g ai/ha; for plant injury at 250 g/ha: 250 g ai/ha
How it was run: as §1

[4] = tested on: velvetleaf (Abutilon theophrasti); settings: Abutilon theophrasti; for pest or weed control at 31 g/ha: 31 g ai/ha; for pest or weed control at 62 g/ha: 62 g ai/ha; for pest or weed control at 125 g/ha: 125 g ai/ha; for pest or weed control at 250 g/ha: 250 g ai/ha
How it was run: as §1

[5] = tested on: waterhemp (common waterhemp, Amaranthus rudis); settings: Amaranthus tuberculatus; for pest or weed control at 31 g/ha: 31 g ai/ha; for pest or weed control at 62 g/ha: 62 g ai/ha; for pest or weed control at 125 g/ha: 125 g ai/ha; for pest or weed control at 250 g/ha: 250 g ai/ha
How it was run: as §1

[6] = post-emergence, Postemergence, scale 0 to 100, 0 no effect, 100 complete control, read-out: Plant response rating, Crabgrass, Large
[7] = pre-emergence, Preemergence, read-out: Plant response rating (scale 0 to 100), Crabgrass, Large
[8] = pre-emergence, Preemergence, scale 0 to 100 (0 no effect, 100 complete control), read-out: Plant response rating, Crabgrass, Large
[9] = post-emergence, Postemergence, scale 0 to 100, 0 no effect, 100 complete control, read-out: Plant response rating, Morningglory
[10] = pre-emergence, Preemergence, read-out: Plant response rating (scale 0 to 100), Morningglory
[11] = pre-emergence, Preemergence, scale 0 to 100 (0 no effect, 100 complete control), read-out: Plant response rating, Morningglory
[12] = post-emergence, Postemergence, scale 0 to 100, 0 no effect, 100 complete control, read-out: Plant response rating, Pigweed
[13] = pre-emergence, Preemergence, read-out: Plant response rating (scale 0 to 100), Pigweed
[14] = pre-emergence, Preemergence, scale 0 to 100 (0 no effect, 100 complete control), read-out: Plant response rating, Pigweed
[15] = post-emergence, Postemergence, scale 0 to 100, 0 no effect, 100 complete control, read-out: Plant response rating, Soybean
[16] = pre-emergence, Preemergence, read-out: Plant response rating (scale 0 to 100), Soybean
[17] = pre-emergence, Preemergence, scale 0 to 100 (0 no effect, 100 complete control), read-out: Plant response rating, Soybean
[18] = post-emergence, Postemergence, scale 0 to 100, 0 no effect, 100 complete control, read-out: Plant response rating, Velvetleaf
[19] = pre-emergence, Preemergence, read-out: Plant response rating (scale 0 to 100), Velvetleaf
[20] = pre-emergence, Preemergence, scale 0 to 100 (0 no effect, 100 complete control), read-out: Plant response rating, Velvetleaf
[21] = post-emergence, Postemergence, scale 0 to 100, 0 no effect, 100 complete control, read-out: Plant response rating, Waterhemp
[22] = pre-emergence, Preemergence, read-out: Plant response rating (scale 0 to 100), Waterhemp
[23] = pre-emergence, Preemergence, scale 0 to 100 (0 no effect, 100 complete control), read-out: Plant response rating, Waterhemp

FC(F)c1cc(-c2ccccc2Oc2ncc(Br)cn2)no1 [Compound 62, 5-bromo-2-[2-[5-(difluoromethyl)-3-isoxazolyl]phenoxy]pyrimidine]
pest or weed control at 31 g/ha ([1]; post-emergence, Postemergence, scale 0 to 100 (0 no effect, 100 complete control), read-out: Crabgrass, Large plant response rating): 55%
pest or weed control at 62 g/ha [1, 6]: 35%
pest or weed control at 125 g/ha [1, 6]: 50%
pest or weed control at 250 g/ha [1, 6]: 65%
pest or weed control at 125 g/ha [1, 7]: 100%
pest or weed control at 250 g/ha [1, 7]: 100%
pest or weed control at 31 g/ha [1, 8]: 95%
pest or weed control at 62 g/ha [1, 8]: 100%
pest or weed control at 31 g/ha ([2]; post-emergence, Postemergence, scale 0 to 100 (0 no effect, 100 complete control), read-out: Morningglory plant response rating): 85%
pest or weed control at 62 g/ha [2, 9]: 95%
pest or weed control at 125 g/ha [2, 9]: 95%
pest or weed control at 250 g/ha [2, 9]: 98%
pest or weed control at 125 g/ha [2, 10]: 98%
pest or weed control at 250 g/ha [2, 10]: 100%
pest or weed control at 31 g/ha [2, 11]: 25%
pest or weed control at 62 g/ha [2, 11]: 55%
pest or weed control at 31 g/ha ([3]; post-emergence, Postemergence, scale 0 to 100 (0 no effect, 100 complete control), read-out: Pigweed plant response rating): 98%
pest or weed control at 62 g/ha [3, 12]: 100%
pest or weed control at 125 g/ha [3, 12]: 100%
pest or weed control at 250 g/ha [3, 12]: 100%
pest or weed control at 125 g/ha [3, 13]: 100%
pest or weed control at 250 g/ha [3, 13]: 100%
pest or weed control at 31 g/ha [3, 14]: 100%
pest or weed control at 62 g/ha [3, 14]: 100%
plant injury at 31 g/ha (soybean (Glycine max); post-emergence, Postemergence, scale 0 to 100 (0 no effect, 100 complete control), read-out: Soybean plant response rating): 80%
plant injury at 62 g/ha (soybean (Glycine max); [15]): 95%
plant injury at 125 g/ha (soybean (Glycine max); [15]): 98%
plant injury at 250 g/ha (soybean (Glycine max); [15]): 98%
plant injury at 125 g/ha (soybean (Glycine max); [16]): 85%
plant injury at 250 g/ha (soybean (Glycine max); [16]): 95%
plant injury at 31 g/ha (soybean (Glycine max); [17]): 60%
plant injury at 62 g/ha (soybean (Glycine max); [17]): 70%
pest or weed control at 31 g/ha ([4]; post-emergence, Postemergence, scale 0 to 100 (0 no effect, 100 complete control), read-out: Velvetleaf plant response rating): 60%
pest or weed control at 62 g/ha [4, 18]: 70%
pest or weed control at 125 g/ha [4, 18]: 75%
pest or weed control at 250 g/ha [4, 18]: 85%
pest or weed control at 125 g/ha [4, 19]: 100%
pest or weed control at 250 g/ha [4, 19]: 100%
pest or weed control at 31 g/ha [4, 20]: 90%
pest or weed control at 62 g/ha [4, 20]: 100%
pest or weed control at 31 g/ha ([5]; post-emergence, Postemergence, scale 0 to 100 (0 no effect, 100 complete control), read-out: Waterhemp plant response rating): 98%
pest or weed control at 62 g/ha [5, 21]: 98%
pest or weed control at 125 g/ha [5, 21]: 98%
pest or weed control at 250 g/ha [5, 21]: 100%
pest or weed control at 125 g/ha [5, 22]: 100%
pest or weed control at 250 g/ha [5, 22]: 100%
pest or weed control at 31 g/ha [5, 23]: 100%
pest or weed control at 62 g/ha [5, 23]: 100%
